Assay results taken from patent publication US9139557B2, “Carboxamide compounds and their use as calpain inhibitors” (Abbott GmbH & Co. KG, priority 2006, dated 2015).

Key:
Assay type in all cases: biochemical
[1] = molecular target: T1, cathepsin B (Homo sapiens, UniProt P07858); test: Cathepsin B enzyme inhibition in vitro (kinetic fluorescence assay); settings: Ki(cathepsin B)/Ki(calpain) ratio
T1 construct: cathepsin B—isolated from human liver; purchased Calbiochem 219362; host or cells: human liver (tissue isolate)
Protocol: (§1) Testing for blockade of the corresponding enzymic activities was carried out by means of kinetic fluorescence assays (excitation 390 nm, emission 460 nm).
(§2) Apparent Ki values were calculated from the experimentally determined IC50 values by the Cheng-Prussoff relation assuming a reversible competitive enzyme inhibition. The Km values of the substrates used under the assay conditions indicated above were: 90 μM (Z-Phe-Arg-AMC, cathepsin B), 10 μM (Z-Gly-Pro-Arg-AMC, cathepsin K), 2 μM (Z-Phe-Arg-AMC, cathepsin L), and 30 μM (Z-Val-Val-Arg-AMC, cathepsin S).
(§3) The indicated Ki values are averages of the inhibition constants calculated on the basis of 2 to 4 independent dose-effect plots.
(§4) • 1. Calpain I: • 20 nM calpain-I—isolated from human erythrocytes (Calbiochem #208713), 100 μM Suc-Leu-Tyr-AMC (Bachem #1-1355) as substrate in buffer with 62 mM imidazole, 0.3 mM CaCl2, 0.10% CHAPS, 0.05% BSA, 1 mM DTT at pH 7.3 and room temperature. • 2. Cathepsin B: • 0.25 nM cathepsin B—isolated from human liver (Calbiochem #219362), 100 μM Z-Phe-Arg-AMC (Bachem #1-1160) as substrate 50 mM MES, 2 mM EDTA, 0.05% Brij 35, 2.5 mM L-cysteine, pH 6.0, room temperature. • 3. Cathepsin K: • 3 nM cathepsin K—activated from recombinant human procathepsin K from E. coli (Calbiochem #342001), 10 μM Z-Gly-Pro-Arg-AMC (Biomol #P-142) as substrate in 50 mM MES, 2 mM EDTA, 0.05% Brij 35, 2.5 mM L-cysteine, pH 6.0, room temperature. • 4. Cathepsin L: • 1 nM cathepsin L—isolated from human liver (Calbiochem #219402), 2 μM Z-Phe-Arg-AMC (Bachem #1-1160) as substrate in 50 mM MES, 2 mM EDTA, 0.05% Brij 35, 2.5 mM L-cysteine, pH 6.0, room temperature. • 5. Cathepsin S: • 0.5 nM recombinant human cathepsin S from E. coli (Calbiochem #219343), 20 μM Z-Val-Val-Arg-AMC (Bachem #1-1540) as substrate in 50 mM MES, 2 mM EDTA, 0.05% Brij 35, 2.5 mM L-cysteine, pH 6.0, room temperature.

[2] = molecular target: T2, cathepsin K (Homo sapiens, UniProt P43235); test: Cathepsin K enzyme inhibition in vitro (kinetic fluorescence assay); settings: Ki(cathepsin K)/Ki(calpain) ratio
T2 construct: purchased Calbiochem 342001; host or cells: E. coli
T2 sequence (P43235 115-329): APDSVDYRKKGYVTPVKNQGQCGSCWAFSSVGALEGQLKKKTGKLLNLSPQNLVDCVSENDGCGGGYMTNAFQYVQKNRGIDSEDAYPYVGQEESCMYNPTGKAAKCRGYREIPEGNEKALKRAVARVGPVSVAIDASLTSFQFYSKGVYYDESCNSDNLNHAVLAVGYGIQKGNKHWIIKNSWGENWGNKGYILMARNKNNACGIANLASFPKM
Protocol: as §1, §2, §3, §4

[3] = molecular target: T3, cathepsin L (Homo sapiens, UniProt P07711); test: Cathepsin L enzyme inhibition in vitro (kinetic fluorescence assay); settings: Ki(cathepsin L)/Ki(calpain) ratio
T3 construct: cathepsin L—isolated from human liver; purchased Calbiochem 219402; host or cells: human liver (tissue isolate)
How it was run: (§5)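 Kinetic fluorescence (ex 390/em 460 nm), RT. Calpain-I: 20 nM erythrocyte-derived, 100 μM Suc-Leu-Tyr-AMC, imidazole/CaCl2, pH 7.3. Cathepsins, pH 6.0 MES/EDTA/cysteine: B 0.25 nM liver, 100 μM Z-Phe-Arg-AMC; L 1 nM liver, 2 μM Z-Phe-Arg-AMC; S 0.5 nM recombinant, 20 μM Z-Val-Val-Arg-AMC. Cheng-Prusoff Ki, mean of 2–4 curves.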

[4] = molecular target: T4, cathepsin S (Homo sapiens, UniProt P25774); test: Cathepsin S enzyme inhibition in vitro (kinetic fluorescence assay); settings: Ki(cathepsin S)/Ki(calpain) ratio
T4 construct: purchased Calbiochem 219343; host or cells: E. coli
How it was run: as §5

T4 sequence (P25774 115-331): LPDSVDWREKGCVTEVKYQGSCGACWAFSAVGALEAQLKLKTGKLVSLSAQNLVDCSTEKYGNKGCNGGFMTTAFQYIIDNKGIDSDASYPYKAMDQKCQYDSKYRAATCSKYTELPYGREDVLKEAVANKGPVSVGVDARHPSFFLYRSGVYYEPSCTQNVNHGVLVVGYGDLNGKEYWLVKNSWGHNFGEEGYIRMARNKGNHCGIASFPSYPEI
T3 sequence (P07711 114-333): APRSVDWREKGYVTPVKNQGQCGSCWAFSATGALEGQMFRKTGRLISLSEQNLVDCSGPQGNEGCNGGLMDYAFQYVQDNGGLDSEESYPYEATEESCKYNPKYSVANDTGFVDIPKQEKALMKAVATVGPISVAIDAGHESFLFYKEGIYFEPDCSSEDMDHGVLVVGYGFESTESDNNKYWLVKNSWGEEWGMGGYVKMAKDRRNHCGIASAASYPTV

Row | SMILES | Sel cat. B [1] | Sel cat. K [2] | Sel cat. L [3] | Sel cat. S [4]
1 | NC(=O)C(=O)C(Cc1ccccc1)NC(=O)c1cccnc1-n1ccc(-c2cccc(N3CCOCC3)c2)n1 (stereo not shown) [Example 58, N-(3-Amino-1-benzyl-2,3-dioxopropyl)-2-[3-(3-morpholin-4-ylphenyl)-1H-pyrazol-1-yl]nicotinamide] | + (+ means 10≦Ki(cathepsin B)/Ki(calpain)<30) | + (+ means 10≦Ki(cathepsin K)/Ki(calpain)<30) | ++ (++ means a Ki(cathepsin L)/Ki(calpain) ratio of ≧50) | ++ (++ means a Ki(cathepsin S)/Ki(calpain) ratio of ≧100)
2 | NC(=O)C(=O)C(Cc1ccccc1)NC(=O)c1cccnc1-n1ccc(-c2ccc(C(F)(F)F)cc2)n1 (stereo not shown) [Example 60, N-(3-Amino-1-benzyl-2,3-dioxopropyl)-2-{3-[4-(trifluoromethyl)phenyl]-1H-pyrazol-1-yl}nicotinamide] | + (+ means 10≦Ki(cathepsin B)/Ki(calpain)<30) | + (+ means 10≦Ki(cathepsin K)/Ki(calpain)<30) | ++ (++ means a Ki(cathepsin L)/Ki(calpain) ratio of ≧50) | + (+ means 50≦Ki(cathepsin S)/Ki(calpain)<100)
3 | NC(=O)C(=O)C(Cc1ccccc1)NC(=O)c1cccnc1-n1cc2c(n1)-c1ccccc1CC2 (stereo not shown) [Example 63, N-(3-Amino-1-benzyl-2,3-dioxopropyl)-2-(4,5-dihydro-2H-benzo[g]indazol-2-yl)nicotinamide] | + (+ means 10≦Ki(cathepsin B)/Ki(calpain)<30) | + (+ means 10≦Ki(cathepsin K)/Ki(calpain)<30) | ++ (++ means a Ki(cathepsin L)/Ki(calpain) ratio of ≧50) | ++ (++ means a Ki(cathepsin S)/Ki(calpain) ratio of ≧100)
4 | NC(=O)C(=O)C(Cc1ccc(Cl)cc1)NC(=O)c1cccnc1-n1ccc(-c2ccc(F)cc2)n1 (stereo not shown) [Example 67, N-[3-Amino-1-(4-chlorobenzyl)-2,3-dioxopropyl]-2-[3-(4-fluorophenyl)-1H-pyrazol-1-yl]nicotinamide] | + (+ means 10≦Ki(cathepsin B)/Ki(calpain)<30) | + (+ means 10≦Ki(cathepsin K)/Ki(calpain)<30) | ++ (++ means a Ki(cathepsin L)/Ki(calpain) ratio of ≧50) | ++ (++ means a Ki(cathepsin S)/Ki(calpain) ratio of ≧100)
5 | NC(=O)C(=O)C(Cc1ccccc1)NC(=O)c1cccnc1-n1ccc(-c2ccc(N3CCCC3)cc2)n1 (stereo not shown) [Example 69, N-(3-Amino-1-benzyl-2,3-dioxopropyl)-2-[3-(4-pyrrolidin-1-ylphenyl)-1H-pyrazol-1-yl]nicotinamide] | + (+ means 10≦Ki(cathepsin B)/Ki(calpain)<30) | + (+ means 10≦Ki(cathepsin K)/Ki(calpain)<30) | ++ (++ means a Ki(cathepsin L)/Ki(calpain) ratio of ≧50) | ++ (++ means a Ki(cathepsin S)/Ki(calpain) ratio of ≧100)
6 | NC(=O)C(=O)C(Cc1ccccc1)NC(=O)c1cccnc1-n1ccc(-c2cccc(Cl)c2)n1 (stereo not shown) [Example 70, N-(3-Amino-1-benzyl-2,3-dioxopropyl)-2-[3-(3-chlorophenyl)-1H-pyrazol-1-yl]nicotinamide] | + (+ means 10≦Ki(cathepsin B)/Ki(calpain)<30) | + (+ means 10≦Ki(cathepsin K)/Ki(calpain)<30) | ++ (++ means a Ki(cathepsin L)/Ki(calpain) ratio of ≧50) | ++ (++ means a Ki(cathepsin S)/Ki(calpain) ratio of ≧100)
7 | NC(=O)C(=O)C(Cc1ccccc1)NC(=O)c1cccnc1-n1ccc(-c2ccc(F)cc2Cl)n1 (stereo not shown) [Example 71, N-(3-Amino-1-benzyl-2,3-dioxopropyl)-2-[3-(2-chloro-4-fluorophenyl)-1H-pyrazol-1-yl]nicotinamide] | ++ (++ means a Ki(cathepsin B)/Ki(calpain) ratio of ≧30) | ++ (++ means a Ki(cathepsin K)/Ki(calpain) ratio of ≧30) | ++ (++ means a Ki(cathepsin L)/Ki(calpain) ratio of ≧50) | ++ (++ means a Ki(cathepsin S)/Ki(calpain) ratio of ≧100)
8 | NC(=O)C(=O)C(Cc1ccccc1)NC(=O)c1cccnc1-n1ccc(-c2ccccc2C(F)(F)F)n1 (stereo not shown) [Example 72, N-(3-Amino-1-benzyl-2,3-dioxopropyl)-2-{3-[2-(trifluoromethyl)phenyl]-1H-pyrazol-1-yl}nicotinamide] | + (+ means 10≦Ki(cathepsin B)/Ki(calpain)<30) | + (+ means 10≦Ki(cathepsin K)/Ki(calpain)<30) | + (+ means 30≦Ki(cathepsin L)/Ki(calpain)<50) | ++ (++ means a Ki(cathepsin S)/Ki(calpain) ratio of ≧100)
9 | NC(=O)C(=O)C(Cc1ccccc1)NC(=O)c1cccnc1-n1ccc(-c2ccccc2F)n1 (stereo not shown) [Example 76, N-(3-Amino-1-benzyl-2,3-dioxopropyl)-2-[3-(2-fluorophenyl)-1H-pyrazol-1-yl]nicotinamide] | ++ (++ means a Ki(cathepsin B)/Ki(calpain) ratio of ≧30) | + (+ means 10≦Ki(cathepsin K)/Ki(calpain)<30) | ++ (++ means a Ki(cathepsin L)/Ki(calpain) ratio of ≧50) | ++ (++ means a Ki(cathepsin S)/Ki(calpain) ratio of ≧100)
10 | NC(=O)C(=O)C(Cc1ccccc1)NC(=O)c1cccnc1-n1ccc(-c2ccc(Cl)cc2Cl)n1 (stereo not shown) [Example 79, N-(3-Amino-1-benzyl-2,3-dioxopropyl)-2-[3-(2,4-dichlorophenyl)-1H-pyrazol-1-yl]nicotinamide] | ++ (++ means a Ki(cathepsin B)/Ki(calpain) ratio of ≧30) | ++ (++ means a Ki(cathepsin K)/Ki(calpain) ratio of ≧30) | ++ (++ means a Ki(cathepsin L)/Ki(calpain) ratio of ≧50) | ++ (++ means a Ki(cathepsin S)/Ki(calpain) ratio of ≧100)
11 | COc1ccc(CC(NC(=O)c2cccnc2-n2ccc(-c3ccccc3)n2)C(=O)C(N)=O)cc1 (stereo not shown) [Example 80, N-[3-Amino-1-(4-methoxybenzyl)-2,3-dioxopropyl]-2-(3-phenyl-1H-pyrazol-1-yl)nicotinamide] | ++ (++ means a Ki(cathepsin B)/Ki(calpain) ratio of ≧30) | + (+ means 10≦Ki(cathepsin K)/Ki(calpain)<30) | ++ (++ means a Ki(cathepsin L)/Ki(calpain) ratio of ≧50) | ++ (++ means a Ki(cathepsin S)/Ki(calpain) ratio of ≧100)
12 | COc1ccc(CC(NC(=O)c2cccnc2-n2ccc(-c3ccc(F)cc3)n2)C(=O)C(N)=O)cc1 (stereo not shown) [Example 81, N-[3-Amino-1-(4-methoxybenzyl)-2,3-dioxopropyl]-2-[3-(4-fluorophenyl)-1H-pyrazol-1-yl]nicotinamide] | + (+ means 10≦Ki(cathepsin B)/Ki(calpain)<30) | + (+ means 10≦Ki(cathepsin K)/Ki(calpain)<30) | ++ (++ means a Ki(cathepsin L)/Ki(calpain) ratio of ≧50) | ++ (++ means a Ki(cathepsin S)/Ki(calpain) ratio of ≧100)
13 | NC(=O)C(=O)C(Cc1ccccc1)NC(=O)c1cccnc1-n1ccc(-c2cccc(C(F)(F)F)c2)n1 (stereo not shown) [Example 83, N-(3-Amino-1-benzyl-2,3-dioxopropyl)-2-{3-[3-(trifluoromethyl)phenyl]-1H-pyrazol-1-yl}nicotinamide] | + (+ means 10≦Ki(cathepsin B)/Ki(calpain)<30) | ++ (++ means a Ki(cathepsin K)/Ki(calpain) ratio of ≧30) | ++ (++ means a Ki(cathepsin L)/Ki(calpain) ratio of ≧50) | ++ (++ means a Ki(cathepsin S)/Ki(calpain) ratio of ≧100)
